Measurements from ChEMBL document CHEMBL1201862, “PubChem BioAssay data set” (2004).
Calls of active or inactive are those of the source.

Experiments:
[1] = A549 cell cytotoxicity, dose response, cytotoxicity control, plate reader, cherry-pick, antagonist series (AID 743412); type: functional, cell-based
[2] = HepG2 cell cytotoxicity, dose response, cytotoxicity control, plate reader, cherry-pick, antagonist series (AID 743416); type: functional, cell-based
[3] = LGR2 antagonists, dose response, cell-based, HEK293, CRE-luciferase reporter, cherry pick, set 2 (AID 743343); type: functional;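 note: transfected cells were stimulated with diluted bursicon conditioned medium after compound addition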
[4] = HEK293 cell cytotoxicity, dose response, cytotoxicity control, plate reader, cherry-picked samples (AID 743446); type: functional, cell-based
[5] = MC4R antagonists, dose response, counter-screen for LGR2 antagonist project, cell-based, plate reader, cherry pick (AID 743444); type: functional;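 note: transfected HEK 293 cells stimulated with alpha-MSH peptide; potency of inhibitors of the alpha-MSH evoked signal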
[6] = P. falciparum Dd2 growth inhibitors, dose response, SYBR Green, cherry-picked samples (AID 1159567); type: functional, cell-based
[7] = HepG2 cell cytotoxicity, dose response, cytotoxicity control, cherry-picked samples (AID 1159577); type: functional, cell-based
[8] = HepG2 cell cytotoxicity, dose response, cytotoxicity control, plate reader, dry powder samples (AID 1159569); type: functional, cell-based;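 note: inhibitor potency with signal falling toward the positive control level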
[9] = P. falciparum ATP4 D1247Y mutant growth inhibitors, dose response, NITD609-resistant line, SYBR Green, dry powder (AID 1159571); type: functional, cell-based;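 note: parasites synchronized at ring stage by sorbitol before testing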
[10] = P. falciparum 3D7-ScDHODH growth inhibitors, dose response, SYBR Green, dry powder samples (AID 1159570); type: functional, cell-based;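 note: parasite growth measured after 72 hours of compound exposure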
[11] = P. falciparum Dd2 growth inhibitors, dose response, SYBR Green, dry powder samples (AID 1159566); type: functional, cell-based;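 note: potency for growth inhibition with lower SYBR green DNA signal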
[12] = biological target: T1, 1-phosphatidylinositol 4,5-bisphosphate phosphodiesterase beta-3 (Homo sapiens, UniProt Q01970); assay: Fluorescence-based biochemical high throughput dose response assay to identify inhibitors of phospholipase C isozymes (PLC-B3).
T1 sequence (Q01970 whole entry): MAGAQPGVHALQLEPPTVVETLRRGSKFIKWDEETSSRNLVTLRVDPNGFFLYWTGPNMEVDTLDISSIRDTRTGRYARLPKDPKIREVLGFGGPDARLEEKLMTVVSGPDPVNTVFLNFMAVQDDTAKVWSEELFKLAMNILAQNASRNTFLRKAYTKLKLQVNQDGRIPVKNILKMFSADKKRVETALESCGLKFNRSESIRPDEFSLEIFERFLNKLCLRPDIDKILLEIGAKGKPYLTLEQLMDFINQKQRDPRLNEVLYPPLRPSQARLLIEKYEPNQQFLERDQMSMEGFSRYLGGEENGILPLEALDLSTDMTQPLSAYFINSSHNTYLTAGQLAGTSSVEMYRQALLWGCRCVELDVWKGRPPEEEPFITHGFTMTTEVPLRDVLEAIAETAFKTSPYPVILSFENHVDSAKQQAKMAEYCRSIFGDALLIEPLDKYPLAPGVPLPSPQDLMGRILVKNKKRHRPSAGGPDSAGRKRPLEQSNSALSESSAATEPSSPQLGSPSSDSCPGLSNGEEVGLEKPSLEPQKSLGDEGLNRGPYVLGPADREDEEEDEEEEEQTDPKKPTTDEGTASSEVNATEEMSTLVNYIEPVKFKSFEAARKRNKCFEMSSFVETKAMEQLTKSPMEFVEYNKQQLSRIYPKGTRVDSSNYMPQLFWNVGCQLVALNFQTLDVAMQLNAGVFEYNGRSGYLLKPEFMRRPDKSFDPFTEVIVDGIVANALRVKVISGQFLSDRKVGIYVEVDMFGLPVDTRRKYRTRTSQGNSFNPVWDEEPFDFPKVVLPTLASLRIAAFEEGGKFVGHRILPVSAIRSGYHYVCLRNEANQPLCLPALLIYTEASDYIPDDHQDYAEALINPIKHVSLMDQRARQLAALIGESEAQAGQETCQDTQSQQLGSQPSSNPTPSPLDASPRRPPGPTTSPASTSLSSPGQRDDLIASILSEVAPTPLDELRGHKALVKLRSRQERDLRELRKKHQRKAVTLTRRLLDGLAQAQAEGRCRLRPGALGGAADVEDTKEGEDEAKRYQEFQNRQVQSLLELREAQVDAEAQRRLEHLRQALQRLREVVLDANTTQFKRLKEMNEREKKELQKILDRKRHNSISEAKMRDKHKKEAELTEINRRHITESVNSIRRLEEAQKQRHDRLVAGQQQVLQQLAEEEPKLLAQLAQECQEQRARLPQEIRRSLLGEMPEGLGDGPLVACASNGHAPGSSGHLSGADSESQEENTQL

[13] = biological target: T2, 1-phosphatidylinositol 4,5-bisphosphate phosphodiesterase gamma-1 (Homo sapiens, UniProt P19174); assay: Counterscreen for inhibitors of phospholipase C isozymes (PLC-B3): Fluorescence-based biochemical high throughput dose response assay to identify inhibitors of phospholipase C isozymes (PLC-gamma1).
T2 sequence (P19174 whole entry): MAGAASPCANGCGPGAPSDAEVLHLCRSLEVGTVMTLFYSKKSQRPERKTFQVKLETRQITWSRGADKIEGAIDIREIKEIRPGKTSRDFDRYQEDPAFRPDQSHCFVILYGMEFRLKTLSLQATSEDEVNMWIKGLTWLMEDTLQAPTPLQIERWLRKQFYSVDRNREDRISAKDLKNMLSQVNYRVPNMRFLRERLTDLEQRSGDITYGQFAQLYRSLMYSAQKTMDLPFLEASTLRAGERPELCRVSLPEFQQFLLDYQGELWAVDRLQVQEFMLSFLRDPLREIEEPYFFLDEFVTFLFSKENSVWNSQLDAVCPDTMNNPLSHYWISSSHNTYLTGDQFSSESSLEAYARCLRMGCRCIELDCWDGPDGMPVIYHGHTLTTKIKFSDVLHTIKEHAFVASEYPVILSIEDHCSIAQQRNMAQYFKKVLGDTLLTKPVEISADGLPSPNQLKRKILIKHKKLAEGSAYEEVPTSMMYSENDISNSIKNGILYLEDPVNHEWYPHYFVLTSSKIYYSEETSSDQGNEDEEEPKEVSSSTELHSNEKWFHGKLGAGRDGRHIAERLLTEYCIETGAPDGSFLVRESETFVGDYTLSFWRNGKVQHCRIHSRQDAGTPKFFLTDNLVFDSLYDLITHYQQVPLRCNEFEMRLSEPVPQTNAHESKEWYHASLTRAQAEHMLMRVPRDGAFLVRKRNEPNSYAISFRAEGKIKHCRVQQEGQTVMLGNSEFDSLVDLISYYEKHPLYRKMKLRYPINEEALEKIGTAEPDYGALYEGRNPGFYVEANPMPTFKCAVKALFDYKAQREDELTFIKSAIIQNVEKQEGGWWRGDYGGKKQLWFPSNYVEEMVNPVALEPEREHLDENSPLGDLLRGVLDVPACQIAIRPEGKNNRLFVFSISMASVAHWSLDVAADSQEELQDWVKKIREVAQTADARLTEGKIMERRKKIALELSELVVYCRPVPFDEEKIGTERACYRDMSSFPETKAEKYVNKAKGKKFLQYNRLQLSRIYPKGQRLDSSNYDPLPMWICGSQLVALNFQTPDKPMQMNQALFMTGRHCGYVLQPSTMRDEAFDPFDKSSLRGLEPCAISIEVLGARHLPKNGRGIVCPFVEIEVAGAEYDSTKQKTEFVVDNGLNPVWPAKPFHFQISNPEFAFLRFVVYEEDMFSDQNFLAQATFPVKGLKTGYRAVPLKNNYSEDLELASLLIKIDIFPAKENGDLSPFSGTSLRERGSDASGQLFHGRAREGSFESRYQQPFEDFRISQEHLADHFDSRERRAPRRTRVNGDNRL

[14] = P. falciparum Dd2 growth inhibitors, dose response, SYBR Green, dry powder samples, set 9 (AID 1159568); type: functional, cell-based
H9c2 = assay: cells; type: functional, cell-based; settings: Rattus norvegicus, H9c2, Myocardium;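 note: confirmatory concentration-response retest of ultra-high-throughput screening hits for modulation of myocardial damage; cell death induced by hydrogen peroxide oxidative stress; compound pretreatment for 60 min then peroxide exposure for 2 h; potency is for protecting the cells against peroxide damage rather than for killing them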
Large T antigen = Large T antigen (Simian virus 40, UniProt P03070); type: functional, Betapolyomavirus macacae;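 note: Confirmatory-stage PubChem screen for compounds that inhibit SV40 T antigen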
Large T antigen, sequence (P03070 whole entry): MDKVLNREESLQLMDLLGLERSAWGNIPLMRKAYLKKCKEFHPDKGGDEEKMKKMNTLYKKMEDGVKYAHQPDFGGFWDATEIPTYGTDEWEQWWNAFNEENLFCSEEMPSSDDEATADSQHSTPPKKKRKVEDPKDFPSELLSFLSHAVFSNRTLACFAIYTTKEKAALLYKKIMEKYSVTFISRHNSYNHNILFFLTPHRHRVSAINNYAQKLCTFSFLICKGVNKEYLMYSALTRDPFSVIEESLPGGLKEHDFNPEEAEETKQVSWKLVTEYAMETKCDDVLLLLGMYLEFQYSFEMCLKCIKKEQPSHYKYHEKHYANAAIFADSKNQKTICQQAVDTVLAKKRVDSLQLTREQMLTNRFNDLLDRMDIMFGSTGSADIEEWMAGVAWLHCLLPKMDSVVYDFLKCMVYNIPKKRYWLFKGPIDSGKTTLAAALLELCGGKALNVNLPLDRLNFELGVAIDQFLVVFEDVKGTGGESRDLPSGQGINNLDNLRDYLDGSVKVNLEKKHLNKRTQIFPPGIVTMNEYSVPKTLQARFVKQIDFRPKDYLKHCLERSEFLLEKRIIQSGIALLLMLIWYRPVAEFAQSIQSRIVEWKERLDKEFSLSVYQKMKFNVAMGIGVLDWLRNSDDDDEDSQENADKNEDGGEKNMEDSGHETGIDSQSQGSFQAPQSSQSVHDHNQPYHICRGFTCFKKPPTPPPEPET

[15] = biological target: Eukaryotic translation initiation factor 4E (Mus musculus, UniProt P63073); assay: eIF4E–eIF4G protein interaction inhibitors, dose response, biochemical, TR-FRET (AID 855); type: functional;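 note: potency for disrupting eIF4E binding to eIF4GI seen as loss of FRET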
Eukaryotic translation initiation factor 4E, sequence (P63073 whole entry): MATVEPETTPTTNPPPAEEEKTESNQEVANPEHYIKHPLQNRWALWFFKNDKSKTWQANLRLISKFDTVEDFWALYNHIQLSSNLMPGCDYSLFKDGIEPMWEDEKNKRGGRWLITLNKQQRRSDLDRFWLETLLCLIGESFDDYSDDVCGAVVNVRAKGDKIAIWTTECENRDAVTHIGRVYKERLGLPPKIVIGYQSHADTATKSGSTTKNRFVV

For `COc1ccc(-c2coc3c(C(=O)Nc4cc(OC)c(OC)c(OC)c4)cccc23)c(C)c1`, the AC50 [1] was 9.94 µM (active), the AC50 [2] was 18.3 µM (active) and the AC50 [3] was 1.2 µM (active). For the same compound, the AC50 [4] was 15.3 µM (active) and the AC50 [5] was 0.905 µM (active).
With `O=C(Nc1ccc(F)cc1)N1CCCCN2[C@@H](CO)[C@H](c3ccc(C#Cc4ccccc4)cc3)[C@@H]2C1` the AC50 [6] was < 0.3 µM (active) and the AC50 [7] was 7.42 µM (active).
In the case of `CCCc1cn(CC[C@@H]2CC[C@@H](NS(=O)(=O)c3ccc(-c4ccccc4)cc3)[C@@H](CO)O2)nn1`, the AC50 [8] is reported as 33.6 µM (active), the AC50 [9] is reported as 0.949 µM (active) and the AC50 [10] is reported as 1.6 µM (active). For the same compound, the AC50 [6] was 1.45 µM (active), the AC50 [11] was 0.698 µM (active) and the AC50 [7] was > 39 µM (inactive).
In the case of `C/N=C1/SC(CC(=O)NCCc2ccc(OC)c(OC)c2)C(=O)N1C` (configuration not stated), the IC50 [12] is reported as > 122 µM (inactive) and the IC50 [13] is reported as > 122 µM (inactive).
For `OC[C@@H]1[C@H](c2ccc(-c3ccc(F)cc3)cc2)[C@@H](CNC2CCCC2)N1CCC(F)(F)F`, the AC50 [8] was 21.1 µM (active), the AC50 [9] was 0.241 µM (active) and the AC50 [10] was 0.259 µM (active). For the same compound, the AC50 [6] was 0.401 µM (active), the AC50 [11] was 0.113 µM (active) and the AC50 [7] was > 39 µM (inactive). The AC50 [14] was 0.491 µM (active).
For `COc1ccc(-c2nc(-c3ccccc3)no2)c(OC)c1`, the AC50 [1] was 28.4 µM (active), the AC50 [2] was 47.6 µM (active) and the AC50 [3] was 0.621 µM (active). For the same compound, the AC50 [4] was 31.9 µM (active) and the AC50 [5] was 1.05 µM (active).
With `O=C(COC(=O)c1ccccc1C(=O)OCC(=O)NCCc1c[nH]c2ccccc12)NCCc1c[nH]c2ccccc12` the IC50 [12] was > 123 µM (inactive), the IC50 [13] was > 123 µM (inactive) and the IC50 (H9c2) was > 79 µM (inactive).
With `O=C1NC(=S)S/C1=C\c1ccc(SCc2ccccc2)o1` the IC50 [12] was > 122 µM (inactive), the IC50 (Large T antigen) was > 100 µM (active) and the IC50 [13] was > 122 µM (inactive).
With `COc1ccccc1-c1ccc2c(c1)[C@@H]1[C@@H](CCN1C(=O)C1CCCCC1)[C@@H](CO)N2` the AC50 [8] was 11.1 µM (active), the AC50 [9] was 0.498 µM (active) and the AC50 [10] was 0.488 µM (active). For the same compound, the AC50 [6] was 1.74 µM (active) and the AC50 [11] was 0.283 µM (active).
For `CCNc1nc(NC(C)C)nc(Oc2ccc(OCCOc3ccccc3)nn2)n1`, the IC50 [15] was > 64 µM (inactive).
For `COc1ccccc1S(=O)(=O)N(C)C[C@@H]1Oc2cc(/C=C/c3ccccc3)ccc2S(=O)(=O)N([C@H](C)CO)C[C@H]1C`, the AC50 [8] was 81.6 µM (active), the AC50 [9] was 0.215 µM (active) and the AC50 [10] was 0.466 µM (active). For the same compound, the AC50 [6] was 0.459 µM (active), the AC50 [11] was 0.22 µM (active) and the AC50 [14] was 0.443 µM (active).
With `CCCC#Cc1ccc2c(c1)O[C@@H](CN(C)Cc1ccncc1)[C@H](C)CN([C@@H](C)CO)S2(=O)=O` the AC50 [6] was 3.85 µM (active) and the AC50 [7] was > 39 µM (inactive).
